Experiment [1] deals with HCT-116. Kind of experiment: Antiproliferative activity was evaluated using HCT116 cells in WST-1 assay. The experiment is classed as functional. The following applies: Homo sapiens. (Tetrazolium dyes change colour on reduction, which living cells bring about.)
For experiment [2], the target named is T1, Serine/threonine-protein kinase RAF and Dual specificity mitogen-activated protein kinase kinase 1 (Raf/MEK) (Homo sapiens, UniProt P04049+Q02750). Kind of experiment: Inhibitory activity in EGF-stimulated Elk1-luciferase reporter assay in HeLa cells at 30 uM. The experiment is classed as functional, cell-based. Background: Reporter assays use an easily measured gene product as a stand-in for the process of interest.

Experiment [3] has as its target T1, Serine/threonine-protein kinase RAF and Dual specificity mitogen-activated protein kinase kinase 1 (Raf/MEK). Kind of experiment: Inhibitory activity in EGF-stimulated Elk1-luciferase reporter assay in HeLa cells at 15 uM. The experiment is classed as functional, cell-based.
The subject of experiment [4] is HCT-116. Kind of experiment: Ability of compound to inhibit anchorage independent colony formation (soft agar growth assay) in HCT116 cells. The experiment is classed as functional. The following applies: Homo sapiens.
The target in experiment [5] is T1, Serine/threonine-protein kinase RAF and Dual specificity mitogen-activated protein kinase kinase 1 (Raf/MEK). Kind of experiment: Inhibition of EGF-stimulated Elk1-luciferase reporter assay in HeLa cells. The experiment is classed as functional, cell-based.
The subject of experiment [6] is HCT-116. Kind of experiment: cells. Particulars: Homo sapiens.
Description: Antiproliferative activity was evaluated using HCT116 cells in WST-1 assay at 15 uM
For experiment [7], the target named is T1, Serine/threonine-protein kinase RAF and Dual specificity mitogen-activated protein kinase kinase 1 (Raf/MEK). Kind of experiment: Inhibitory activity in EGF-stimulated Elk1-luciferase reporter assay in HeLa cells at 20 uM. The experiment is classed as functional, cell-based.
Experiment [8] has the same target. The experiment in a line: Inhibitory activity in EGF-stimulated Elk1-luciferase reporter assay in HeLa cells at 60 uM. The experiment is classed as functional, cell-based.
Experiment [9] relates to HCT-116. The experiment in a line: Antiproliferative activity was evaluated using HCT116 cells in WST-1 assay at 60 uM. The experiment is classed as functional. Particulars: Homo sapiens.

The values that follow come from ChEMBL document CHEMBL1137122, “Solution phase parallel synthesis and evaluation of MAPK inhibitory activities of close structural analogues of a Ras pathway modulator” (Bioorg Med Chem Lett, 2004).

T1 sequence (P04049 whole entry, looked up): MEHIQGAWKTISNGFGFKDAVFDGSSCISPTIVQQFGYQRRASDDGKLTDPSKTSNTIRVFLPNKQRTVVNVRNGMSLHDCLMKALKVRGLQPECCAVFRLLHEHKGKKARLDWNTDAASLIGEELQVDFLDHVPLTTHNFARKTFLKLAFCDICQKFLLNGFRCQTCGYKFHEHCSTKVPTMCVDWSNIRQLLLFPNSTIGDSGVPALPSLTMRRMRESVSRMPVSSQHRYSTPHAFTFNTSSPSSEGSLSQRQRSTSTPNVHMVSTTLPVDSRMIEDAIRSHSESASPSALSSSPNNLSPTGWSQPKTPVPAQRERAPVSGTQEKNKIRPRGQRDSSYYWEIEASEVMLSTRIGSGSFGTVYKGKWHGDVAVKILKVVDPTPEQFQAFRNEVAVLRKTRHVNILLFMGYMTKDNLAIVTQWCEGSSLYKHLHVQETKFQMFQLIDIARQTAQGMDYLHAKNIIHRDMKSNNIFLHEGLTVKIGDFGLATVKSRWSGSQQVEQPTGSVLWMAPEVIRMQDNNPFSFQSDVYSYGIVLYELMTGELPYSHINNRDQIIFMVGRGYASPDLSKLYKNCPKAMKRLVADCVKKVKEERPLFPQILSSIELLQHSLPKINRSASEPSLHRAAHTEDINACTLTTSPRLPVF
T1 sequence (Q02750 whole entry, looked up): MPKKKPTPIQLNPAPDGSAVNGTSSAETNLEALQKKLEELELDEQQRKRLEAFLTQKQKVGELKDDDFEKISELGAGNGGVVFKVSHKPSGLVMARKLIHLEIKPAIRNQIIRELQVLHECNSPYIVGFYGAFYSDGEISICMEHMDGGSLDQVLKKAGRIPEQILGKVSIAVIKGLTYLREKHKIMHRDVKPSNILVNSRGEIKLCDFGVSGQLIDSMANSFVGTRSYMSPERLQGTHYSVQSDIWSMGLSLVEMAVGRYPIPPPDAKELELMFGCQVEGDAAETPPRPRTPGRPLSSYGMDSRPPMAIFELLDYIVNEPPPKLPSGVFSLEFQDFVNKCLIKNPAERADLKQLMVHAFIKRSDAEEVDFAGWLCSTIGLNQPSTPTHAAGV

The GI50 is the concentration at which growth is held to half of that of the control. Higher therefore signals lower sensitivity of the cells. One may read the inhibition as the percentage by which the read-out fell short of the control. For the compound `COc1cc(CN(CCC2CCCCN2)C(=O)CCCc2ccccc2)ccc1OCc1ccccc1` (centres undefined), the values for the 50% growth inhibitory concentration (GI50) with HCT-116 [1] and in the experiment on HCT-116 [4] were 5.4 µM and 3.5 µM, respectively. Also, the inhibition in experiment [2] was 100%; in experiment [3] it was 0%.
The term IC50 denotes the concentration that inhibits the measured activity by half. In the case of `COc1cc(CN(CCc2ccccn2)C(=O)C2CC2c2ccccc2)ccc1OCc1ccccc1` (trans isomer), the figures for the GI50 in the experiment with HCT-116 [1] and in the experiment on HCT-116 [4] were 23.9 µM and 25.9 µM, respectively. This compound had an IC50 in [5] of 10.5 µM.
The matching figures for `COc1cc(C(=O)N(CCc2ccccn2)Cc2ccccc2Cl)ccc1OCc1ccccc1`: 29 µM, 18.8 µM and 16.2 µM.
In the experiment with HCT-116 [6], `N#CC(=C(/N)Sc1ccccc1N)/C(C#N)=C(\N)Sc1ccccc1N` registered an inhibition at 15 µM of 35%. Moreover, in the experiment on HCT-116 [4], the GI50 was 19.4 µM.
`COc1cc(CN(CCc2ccccn2)C(=O)COCc2ccccc2)ccc1OCc1ccccc1`: in experiment [7], the inhibition came to 43%.
`COc1cc(CN(CCc2ccccn2)C(=O)c2ccccc2Cl)ccc1OCc1ccccc1`: the GI50 turned out to be 24.7 µM with HCT-116 [1] and 22.1 µM with HCT-116 [4]. Besides, the half-inhibitory concentration (IC50) in experiment [5] stood at 20.6 µM.
The matching figures for `COc1cc(CN(CCc2cccc(O)n2)C(=O)CCCCc2ccccc2)ccc1OCc1ccccc1`: 22.6 µM, 32.3 µM and 12.3 µM.
The matching figures for `COc1cc(CN(CCc2ccccn2)C(=O)CCCCc2ccccc2)ccc1OCc1ccccc1`: 16.2 µM, 20.6 µM and 9 µM.
For `COc1ccc(CN(CCc2ccccn2)C(=O)c2ccccc2Cl)cc1OC`, in experiment [7], the inhibition turned out to be 24%.
Take `O=C(CCCCc1ccccc1)N(CCc1ccccn1)Cc1ccc(OCc2ccccc2)c(O)c1`: the GI50 in the experiment with HCT-116 [1] came out at 31.6 µM. This compound returned a half-inhibitory concentration (IC50) in experiment [5] of 19.4 µM.
For `COc1cc(CN(CCc2ccccn2)C(=O)C(N)Cc2ccccc2)ccc1OCc1ccccc1` (centres undefined), the inhibition in experiment [7] was 14%.
On the same count and under the same terms, with `COc1cc(CN(CCc2ccccn2)C(=O)CNCc2ccccc2)ccc1OCc1ccccc1` the figure was 6%.
Compound `COc1cc(CN(Cc2ccccc2Cl)C(=O)Cc2ccccn2)ccc1OCc1ccccc1` displayed a 50% inhibitory concentration (IC50) in experiment [5] of 25.3 µM.
In the case of `COc1cc(CN(CCc2ccccn2)C(=O)CCC(C)c2ccccc2)ccc1OCc1ccccc1` (centres undefined), the results for the 50% growth inhibitory concentration (GI50) with HCT-116 [1] and in the experiment with HCT-116 [4] were 13.2 µM and 23.5 µM, respectively. This compound gave an IC50 in experiment [5] of 11.2 µM.
Turning to `CNC(=O)c1cc(Oc2ccc(NC(=O)Nc3ccc(Cl)c(C(F)(F)F)c3)cc2)ccn1` [SORAFENIB], the GI50 with HCT-116 [1] was 5.4 µM; with HCT-116 [4] it was 6.6 µM.
Consider `O=C(CCCCc1ccccc1)N(CCc1ccccn1)Cc1ccc(OCc2ccccc2)c(OCCO)c1`, for which the 50% growth inhibitory concentration (GI50) in the experiment with HCT-116 [1] came out at 18.6 µM; in the experiment on HCT-116 [4], 14.4 µM. This compound also yielded a 50% inhibitory concentration (IC50) in experiment [5] of 14.2 µM.
As for `O=C(c1ccccc1Cl)N(CCc1ccccn1)CC1CCN(CCc2ccccc2)CC1`, in [8], the inhibition came out at 7%. This compound yielded an inhibition at 60 µM in the experiment with HCT-116 [9] of 32%.
In turn, `COc1ccc(CN(CCc2ccccn2)C(=O)c2ccccc2Cl)cc1OCc1ccccc1` yielded an inhibition in experiment [7] of 32%.
